Measurements taken from PubChem BioAssay AID2060483 (Molecular Pharmacology Branch, DTP, NCI, 2025).

Tested on: K24384-001-R-PDC complex spheroids, viability
Experiment: Anticancer human tumor K24384-001-R-PDC patient-derived pancreatic adenocarcinoma cell line growth inhibition [GQUAD]
Conditions: for IC50: curve of first compound; for viability, T/C: stronger effect = lower value
From the text: DNA G-quadruplex Stabilizer Agents in Combinations in Complex Spheroids
A high-throughput screen of multi-cell type tumor spheroids was designed to identify active combinations of DNA G-quadruplex stabilizer agents and targeted small molecules. Complex spheroids include a stromal component modeled by human endothelial cells (HUVEC) and fibroblasts modeled by human mesenchymal stem cells (MSCs). The concentration ranges selected for each drug and investigational agent were based upon clinically achievable concentrations if the clinical Cmax of the agent was known.
Compounds. The drugs and investigational agents: pidnarulex (CX-5461; NSC782164), APTO-253 (NSC789042), BRACO-19 (NSC847499), peposertib (NSC802822), ceralasertib (NSC780249), elimusertib (NSC800525), camonsertib (NSC841442), AZD-1390 (NSC803789), olaparib (NSC753686), talazoparib (NSC767125), ART-558 (NSC835418), sotorasib (NSC818433), MRTX-1133 (NSC836407), SN-38 (NSC673596), topotecan (NSC609699), etoposide (NSC141540), doxorubicin (NSC123127), gemcitabine (NSC613327), 5-fluorouracil (NSC19893), paclitaxel (NSC125973), vemurafenib (NSC761431), panobinostat (NSC761190), R-306465 (JNJ-16241199; NSC773264), adavosertib (NSC754352), TP-3654 (NSC805149), carboplatin (NSC241240), KSQ-4279 (NSC840948), and staurosporine (NSC755774) were obtained from the National Cancer Institute (NCI) Developmental Therapeutics Program Chemical Repository (34). The FDA-approved anticancer drug set is available from the NCI Developmental Therapeutics Program. […] The stock solutions were prepared in dimethyl sulfoxide (DMSO, Sigma-Aldrich, St. Louis, MO, cat. D2650) at 800-fold the tested concentration and stored at -70 degrees C prior to their use. All drugs and investigational agents were tested over a range starting from a high concentration at or near the clinical Cmax and decreasing in half-log increments. If the clinical Cmax for an agent had not been determined, the highest concentration tested was 10 microM.
2.3 Cell Culture. All cells were maintained in an incubator at 37 degrees C and 5% CO2 with 95% humidity. The PDC lines were cultured according to standard operating procedures established by the NCI PDMR. All PDCs were thawed and cultured in Matrigel-coated flasks prepared with a working solution of 1X Ham's F-12 nutrient mix, without supplementation (Invitrogen, cat. 11765054), 100 U/mL penicillin-streptomycin (Invitrogen, cat. 15140122), and 2.5% Matrigel (Corning Inc., cat. 354248) for the first three passages. The 857933-349-R-J2-PDC line was cultured in 6C/Colon 1B media, which includes advanced DMEM/F-12 (Thermo Fisher Scientific, cat. 12634028), 10 mM HEPES (Thermo Fisher Scientific, cat. 15630080), 1X GlutaMAX supplement (Thermo Fisher Scientific, cat. 35050061), 0.1 mg/mL primocin (InvivoGen, cat. ant-pm-2), 10% defined fetal bovine serum, heat inactivated (HyClone Laboratories Inc., cat. SH30070.03HI), 50% L-WRN conditioned media (ATCC, cat. CRL-3276), 1.25 mM N-Acetyl-L-cysteine (Sigma-Aldrich, cat. A9165), 10 mM nicotinamide (Sigma-Aldrich, cat. N0636), 1X B-27 supplement (Thermo Fisher Scientific, cat. 17504044), 1X N-2 supplement (Thermo Fisher Scientific, cat. 17502048), 10 microM Y-27632 dihydrochloride (Tocris Bioscience, cat. 1254), and 50 ng/mL human EGF recombinant protein (Thermo Fisher Scientific, cat. PHG0311). The 485176-168-R4-J1-PDC line was cultured in Panc media, which includes all 6C/Colon 1B media components plus 100 ng/mL human FGF-10 (Thermo Fisher Scientific, cat. 100-26), 500 nM SB-431542 (Selleckchem, cat. S1067), and gastrin (Tocris, cat. 3006).
[…]

[1] = second compound 0.0316 µM, first compound 0.0316 µM
[2] = second compound 0.0316 µM, first compound 0.1 µM
[3] = second compound 0.0316 µM, first compound 0.316 µM
[4] = second compound 0.0316 µM, first compound 1 µM
[5] = second compound 0.0316 µM, first compound 3.16 µM
[6] = second compound 0.0316 µM, first compound 10 µM
[7] = second compound 0.1 µM, first compound 0.0316 µM
[8] = second compound 0.1 µM, first compound 0.1 µM
[9] = second compound 0.1 µM, first compound 0.316 µM
[10] = second compound 0.1 µM, first compound 1 µM
[11] = second compound 0.1 µM, first compound 3.16 µM
[12] = second compound 0.1 µM, first compound 10 µM
[13] = second compound 0.316 µM, first compound 0.0316 µM
[14] = second compound 0.316 µM, first compound 0.1 µM
[15] = second compound 0.316 µM, first compound 0.316 µM
[16] = second compound 0.316 µM, first compound 1 µM
[17] = second compound 0.316 µM, first compound 3.16 µM
[18] = second compound 0.316 µM, first compound 10 µM
[19] = second compound 1 µM, first compound 0.0316 µM
[20] = second compound 1 µM, first compound 0.1 µM
[21] = second compound 1 µM, first compound 0.316 µM
[22] = second compound 1 µM, first compound 1 µM
[23] = second compound 1 µM, first compound 3.16 µM
[24] = second compound 1 µM, first compound 10 µM
[25] = second compound 3.16 µM, first compound 0.0316 µM
[26] = second compound 3.16 µM, first compound 0.1 µM
[27] = second compound 3.16 µM, first compound 0.316 µM
[28] = second compound 3.16 µM, first compound 1 µM
[29] = second compound 3.16 µM, first compound 3.16 µM
[30] = second compound 3.16 µM, first compound 10 µM
[31] = second compound 10 µM, first compound 0.0316 µM
[32] = second compound 10 µM, first compound 0.1 µM
[33] = second compound 10 µM, first compound 0.316 µM
[34] = second compound 10 µM, first compound 1 µM
[35] = second compound 10 µM, first compound 3.16 µM
[36] = second compound 10 µM, first compound 10 µM
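Note: spheroids exposed to compounds for seven days.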

Cc1cccc(N(C)C(=O)C2C(O)CCN2c2nc(C)cc(C(F)(F)F)c2C#N)c1 (stereo unspecified) + CN(C)c1ccc(Nc2c3ccc(NC(=O)CCN4CCCC4)cc3nc3cc(NC(=O)CCN4CCCC4)ccc23)cc1
IC50 (second compound 0.0316 µM): > 10000 nM
IC50 (second compound 0.1 µM): > 10000 nM
IC50 (second compound 0.316 µM): > 10000 nM
IC50 (second compound 1 µM): > 10000 nM
IC50 (second compound 3.16 µM): > 10000 nM
IC50 (second compound 10 µM): 3010 nM
viability, T/C [1]: 95.3%
viability, T/C [2]: 87.9%
viability, T/C [3]: 91.3%
viability, T/C [4]: 90.6%
viability, T/C [5]: 109%
viability, T/C [6]: 111%
viability, T/C [7]: 101%
viability, T/C [8]: 110%
viability, T/C [9]: 106%
viability, T/C [10]: 102%
viability, T/C [11]: 100%
viability, T/C [12]: 97.6%
viability, T/C [13]: 90.2%
viability, T/C [14]: 81.9%
viability, T/C [15]: 85.4%
viability, T/C [16]: 87.7%
viability, T/C [17]: 102%
viability, T/C [18]: 95.3%
viability, T/C [19]: 98%
viability, T/C [20]: 83.6%
viability, T/C [21]: 94.7%
viability, T/C [22]: 107%
viability, T/C [23]: 91.8%
viability, T/C [24]: 94.3%
viability, T/C [25]: 93%
viability, T/C [26]: 86.2%
viability, T/C [27]: 80.4%
viability, T/C [28]: 104%
viability, T/C [29]: 117%
viability, T/C [30]: 74.4%
viability, T/C [31]: 89.7%
viability, T/C [32]: 79.8%
viability, T/C [33]: 76.2%
viability, T/C [34]: 61.8%
viability, T/C [35]: 51.1%
viability, T/C [36]: 31.9%

Nc1ccn(C2OC(CO)C(O)C2(F)F)c(=O)n1 (stereo unspecified) + Cc1[nH]c2ccc(F)cc2c1-c1nc2c3cccnc3c3ncccc3c2[nH]1
IC50 (second compound 0.0316 µM): 215 nM
IC50 (second compound 0.1 µM): 208 nM
IC50 (second compound 0.316 µM): 318 nM
IC50 (second compound 1 µM): 290 nM
IC50 (second compound 3.16 µM): 240 nM
IC50 (second compound 10 µM): 110 nM
viability, T/C [1]: 87.6%
viability, T/C [2]: 62.5%
viability, T/C [3]: 44.5%
viability, T/C [4]: 30.6%
viability, T/C [5]: 26.2%
viability, T/C [6]: 23.2%
viability, T/C [7]: 75.7%
viability, T/C [8]: 66.4%
viability, T/C [9]: 36.7%
viability, T/C [10]: 35.8%
viability, T/C [11]: 26.4%
viability, T/C [12]: 19.8%
viability, T/C [13]: 71.1%
viability, T/C [14]: 69.5%
viability, T/C [15]: 46.9%
viability, T/C [16]: 34.8%
viability, T/C [17]: 27.9%
viability, T/C [18]: 20.6%
viability, T/C [19]: 81.3%
viability, T/C [20]: 70%
viability, T/C [21]: 42.5%
viability, T/C [22]: 38.8%
viability, T/C [23]: 33.3%
viability, T/C [24]: 22.1%
viability, T/C [25]: 69.4%
viability, T/C [26]: 60.9%
viability, T/C [27]: 41.3%
viability, T/C [28]: 43.2%
viability, T/C [29]: 25.3%
viability, T/C [30]: 19.7%
viability, T/C [31]: 54.9%
viability, T/C [32]: 52.6%
viability, T/C [33]: 39.6%
viability, T/C [34]: 30.7%
viability, T/C [35]: 19.8%
viability, T/C [36]: 15.1%

COc1cc(C2c3cc4c(cc3C(OC3OC5COC(C)OC5C(O)C3O)C3COC(=O)C23)OCO4)cc(OC)c1O (stereo unspecified) + Cc1[nH]c2ccc(F)cc2c1-c1nc2c3cccnc3c3ncccc3c2[nH]1
IC50 (second compound 0.0316 µM): 3000 nM
IC50 (second compound 0.1 µM): 1320 nM
IC50 (second compound 0.316 µM): 1940 nM
IC50 (second compound 1 µM): 2780 nM
IC50 (second compound 3.16 µM): 1860 nM
IC50 (second compound 10 µM): 688 nM
viability, T/C [1]: 104%
viability, T/C [2]: 96%
viability, T/C [3]: 73.3%
viability, T/C [4]: 71%
viability, T/C [5]: 47.1%
viability, T/C [6]: 33.5%
viability, T/C [7]: 90%
viability, T/C [8]: 94.7%
viability, T/C [9]: 68.8%
viability, T/C [10]: 57%
viability, T/C [11]: 37.5%
viability, T/C [12]: 35.9%
viability, T/C [13]: 113%
viability, T/C [14]: 99.5%
viability, T/C [15]: 75.6%
viability, T/C [16]: 59.3%
viability, T/C [17]: 44.1%
viability, T/C [18]: 35.2%
viability, T/C [19]: 85%
viability, T/C [20]: 80.7%
viability, T/C [21]: 68.7%
viability, T/C [22]: 67.6%
viability, T/C [23]: 44.5%
viability, T/C [24]: 38.1%
viability, T/C [25]: 83.2%
viability, T/C [26]: 71.8%
viability, T/C [27]: 67.6%
viability, T/C [28]: 69.6%
viability, T/C [29]: 33.2%
viability, T/C [30]: 30.8%
viability, T/C [31]: 55.4%
viability, T/C [32]: 59.5%
viability, T/C [33]: 53.1%
viability, T/C [34]: 47.7%
viability, T/C [35]: 24.5%
viability, T/C [36]: 19.8%
